Source: ChEMBL document CHEMBL3286355, “New Hits as Antagonists of GPR103 Identified by HTS” (ACS Med Chem Lett, 2014)

What was measured:
[1] = target: T1, Pyroglutamylated RF-amide peptide receptor (Homo sapiens, UniProt Q96P65); test: Antagonist activity at human GPR103 receptor assessed as inhibition of inositol-1-phosphate production by cell-based assay; assay type: functional
T1 sequence (Q96P65 whole entry): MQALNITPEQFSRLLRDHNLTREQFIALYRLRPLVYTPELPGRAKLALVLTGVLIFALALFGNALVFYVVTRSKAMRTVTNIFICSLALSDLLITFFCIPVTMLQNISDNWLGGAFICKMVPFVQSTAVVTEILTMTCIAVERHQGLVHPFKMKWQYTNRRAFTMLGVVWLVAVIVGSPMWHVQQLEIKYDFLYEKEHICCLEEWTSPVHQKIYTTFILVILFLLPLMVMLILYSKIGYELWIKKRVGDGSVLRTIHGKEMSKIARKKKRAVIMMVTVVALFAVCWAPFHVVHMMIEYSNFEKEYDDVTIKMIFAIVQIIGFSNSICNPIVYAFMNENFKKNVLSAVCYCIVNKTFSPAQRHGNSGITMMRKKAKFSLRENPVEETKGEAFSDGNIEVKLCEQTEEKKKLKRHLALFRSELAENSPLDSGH

[2] = target: T1, Pyroglutamylated RF-amide peptide receptor; test: Displacement of [125I]-QRFP43 from human GPR103 receptor overexpressed in HEK membranes after 90 mins by liquid scintillation counting; assay type: cell membranes
[3] = Distribution coefficient, log D of the compound at pH 7.4; details: octanol/water
[4] = Dissociation constant, pKa of the compound; assay type: physicochemical

Row | SMILES | IC50 [1] | IC50 [2] | logD [3] | pKa [4]
1 | COc1ccc(NC(=N)c2cccs2)cc1COC1CCCC1 | 2.51 µM | 10 µM | 2.7 | –
2 | N=C(Nc1ccc(Cl)c(CSC2CCCC2)c1)c1cccs1 | 1 µM | 3.98 µM | 3.9 | –
3 | COc1ccc(Nc2ccccn2)cc1CSC1CCCC1 | 12.6 µM | > 31.6 µM | 4.6 | –
4 | COc1ccc(NC(=N)c2ccsc2)cc1CSC1CCCC1 | 0.1 µM | 0.126 µM | 2.5 | –
5 | COc1ccc(NC(=N)c2ccc(Br)s2)cc1CSC1CCCC1 | 0.02 µM | 0.126 µM | > 5 | –
6 | COc1ccc(NC(=N)c2cc(Br)cs2)cc1CSC1CCCC1 | 0.158 µM | – | 4.7 | –
7 | COc1ccc(NC(=O)c2cccs2)cc1CSC1CCCC1 | 7.94 µM | > 31.6 µM | > 4.2 | –
8 | COc1ccc(NC(=N)c2ccccc2)cc1CNC(=O)C1CCCC1 | 2.51 µM | 7.94 µM | 1.1 | –
9 | COc1ccc(NC(=N)c2cccs2)cc1CSC1CCCC1 | 0.0501 µM | 0.158 µM | 3.3 | 8.1
10 | COc1ccc(NC(=N)c2ccc(Cl)cc2)cc1CSC1CCCC1 | 0.0126 µM | 0.0398 µM | 3.7 | –
11 | COc1ccc(NC(=N)c2ccccc2)cc1C[S+]([O-])C1CCCC1 (centres undefined) | > 39.8 µM | – | 0.8 | –
12 | COc1ccc(NC(=N)c2cccnc2)cc1CSC1CCCC1 | 0.251 µM | 0.501 µM | 2.6 | –
13 | C/N=C(\c1cccs1)N(C)c1ccc(OC)c(CSC2CCCC2)c1 | > 39.8 µM | – | 1.9 | –
14 | COc1ccc(NC(=N)c2nccs2)cc1CSC1CCCC1 | 2.51 µM | 25.1 µM | 4 | –
15 | Cc1cc2nc(NC(=N)N)nc(C)c2cc1C | 2.51 µM | 5.01 µM | < 0.6 | 9.3
16 | COc1ccc(NC(=N)c2ccccc2)cc1CS(=O)(=O)C1CCCC1 | 31.6 µM | – | – | –
17 | N=C(Nc1ccc(OC(F)(F)F)c(CSC2CCCC2)c1)c1cccs1 | 2 µM | – | > 4.8 | –
18 | COc1ccc(NC(=N)Cc2ccccc2)cc1CSC1CCCC1 | 6.31 µM | – | 2.3 | –
19 | N=C(Nc1cccc(CSC2CCCC2)c1)c1cccs1 | 0.794 µM | 2.51 µM | 3.8 | –
20 | COc1ccc(Cl)cc1NS(=O)(=O)c1ccc(OC)c2c1CC[C@@H](N(C)C)C2 | 0.0794 µM | 0.0794 µM | 2.3 | 10.5
21 | C/N=C(/Nc1ccc(OC)c(CSC2CCCC2)c1)c1cccs1 | 0.251 µM | 0.631 µM | 3.1 | –
22 | COc1ccc(NC(=N)c2ccncc2)cc1CSC1CCCC1 | 1.58 µM | – | 2.9 | –
23 | COc1ccc(NC(=N)c2cc(C)cs2)cc1CSC1CCCC1 | 0.0631 µM | 0.1 µM | 3.7 | –
24 | COc1ccc(NC(=N)c2ccccc2)cc1CSc1ccccc1 | 1.58 µM | 7.94 µM | 2.6 | –
25 | CCC(=N)Nc1ccc(OC)c(CSC2CCCC2)c1 | > 39.8 µM | – | 1.2 | –
26 | N=C(Nc1ccc(F)c(CSC2CCCC2)c1)c1cccs1 | 0.501 µM | 1.26 µM | > 3.9 | –
27 | COc1ccc(C(=N)Nc2ccccc2)cc1CSC1CCCC1 | 1 µM | 3.98 µM | 2.8 | –
28 | COc1ccc(NC(=N)c2ccccc2)cc1CCC1CCCC1 | 0.316 µM | 0.2 µM | 3.8 | –
29 | COc1ccc(NC(=N)c2ccccc2)cc1CSC1CCCC1 | 0.02 µM | 0.0251 µM | 2.5 | –
30 | Cc1ccc(NC(=N)c2cccs2)cc1CSC1CCCC1 | 1.58 µM | 10 µM | > 3.8 | –
